Reference: ChEMBL document CHEMBL5137049, “Discovery of a Novel Small-Molecule Inhibitor Disrupting TRBP-Dicer Interaction against Hepatocellular Carcinoma via the Modulation of microRNA Biogenesis” (J Med Chem, 2022)
Calls of active or inactive are those of the source. The rule behind the calls is not given here.

How the values were obtained:
HepG2 [1] = assay: Upregulation of pri-miR-122 in human HepG2 cells at 10 uM incubated for 6 hrs by qRT-PCR analysis; type: functional, cell-based
SK-HEP1 [2] = assay: Upregulation of TIMP4 expression in human SK-HEP1 cells at 1 to 25 uM by Western blotting analysis; type: functional, cell-based; conditions: dose 1-25 µM
HCCLM3 [3] = assay: Antiproliferative activity against human HCCLM3 cells assessed as inhibition of cell growth incubated for 72 hrs by CellTiter-luminescence assay; type: functional, cell-based
MHCC97-L [4] = assay: Downregulation of miR-135 expression in human MHCC97-L cells at 10 uM by qRT-PCR analysis; type: functional, cell-based
[5] = Acute toxicity in KM mouse assessed as effect on heart at 100 mg/kg, ip administered for 7 consecutive days by hematoxyin-eosin staining based analysis; type: organism-based; conditions: in vivo, 168 h, time 7 day
SK-HEP1 [6] = assay: Downregulation of fibronectin expression in human SK-HEP1 cells at 1 to 25 uM by Western blot analysis; type: functional, cell-based; conditions: dose 1-25 µM
SK-HEP1 [7] = assay: Upregulation of E-cadherin expression level in TRBP siRNA transfected human SK-HEP1 cells incubated for 48 hrs by Western blotting analysis; type: functional, cell-based
HCCLM3 [8] = assay: Upregulation of miR-125 expression in human HCCLM3 cells at 10 uM by qRT-PCR analysis; type: functional, cell-based
SK-HEP1 [9] = assay: Upregulation of miR-125 expression in human SK-HEP1 cells at 10 uM by qRT-PCR analysis; type: functional, cell-based
[10] = Inhibition of TRBP (unknown origin) - recombinant Dicer (unknown origin) protein-protein interaction incubated for 3 hrs by GST pull-down assay; design: species or system Homo sapiens
Homo sapiens [11] = species: Homo sapiens; assay: Effect on ADAR1-Dicer interaction (unknown origin) assessed as increase in binding of ADAR1 to Dicer at 1 to 25 uM by Western blotting analysis; conditions: dose 1-25 µM
SK-HEP1 [12] = assay: Downregulation of vimentin expression in human SK-HEP1 cells at 1 to 25 uM by Western blot analysis; type: functional, cell-based; conditions: dose 1-25 µM
SK-HEP1 [13] = assay: Inhibition of cell migration in human SK-HEP1 cells assessed as reduction of cell mobility at 1 to 25 uM measured at 24 hrs by well scratch method; type: functional, cell-based; conditions: dose 1-25 µM
HeLa [14] = assay: Downregulation of miR-155 expression in human HeLa cells at 10 uM incubated for 6 hrs by qRT-PCR analysis; type: functional
HCCLM3 [15] = assay: Inhibition of cell invasion in human HCLLM3 cells at 1 to 25 uM measured after 24 hrs by crystal violet staining based transwell assay; type: functional; conditions: dose 1-25 µM
SK-HEP1 [16] = assay: Upregulation of let-7 expression in human SK-HEP1 cells at 10 uM by qRT-PCR analysis; type: functional, cell-based
HeLa [17] = assay: Upregulation of pre-miR-214 in human HeLa cells at 10 uM incubated for 6 hrs by qRT-PCR analysis; type: functional, cell-based
[18] = Inhibition of microRNA in human HeLa cells transfected with pCI-neo-luciferase-miR-21 plasmid assessed as change in luciferase signal incubated for 24 hrs by luciferase reporter assay; type: cell-based
HepG2 [19] = assay: Upregulation of pre-miR-21 in human HepG2 cells at 10 uM incubated for 6 hrs by qRT-PCR analysis; type: functional, cell-based
MHCC97-L [20] = assay: Inhibition of cell migration in human MHCC97-L cells assessed as reduction of cell mobility at 1 to 25 uM measured at 24 hrs by well scratch method; type: functional, cell-based; conditions: dose 1-25 µM
[21] = Acute toxicity in KM mouse assessed as effect on liver at 100 mg/kg, ip administered for 7 consecutive days by hematoxyin-eosin staining based analysis; type: organism-based; conditions: in vivo, 168 h, time 7 day
Mus musculus = assay: Upregulation of E-cadherin expression in liver of SCID mouse xenografted with human SK-HEP1 cells at 10 to 50 mg/kg, ip administered every 2 days for 4 weeks by immunohistochemical staining analysis; type: functional, organism-based; conditions: dose 10-50 mg/kg
HeLa [22] = assay: Inhibition of microRNA in human HeLa cells transfected with pCI-neo-luciferase-miR-21 plasmid assessed as change in luciferase signal by measuring relative luciferase unit by luciferase reporter assay; type: cell-based
MHCC97-L [23] = assay: Downregulation of miR-18a expression in human MHCC97-L cells at 10 uM by qRT-PCR analysis; type: functional, cell-based
HCCLM3 [24] = assay: Upregulation of let-7 expression in human HCCLM3 cells at 10 uM by qRT-PCR analysis; type: functional, cell-based
HepG2 [25] = assay: Upregulation of pre-miR-122 in human HepG2 cells at 10 uM incubated for 6 hrs by qRT-PCR analysis; type: functional, cell-based
HCCLM3 [26] = assay: Inhibition of cell migration in human HCCLM3 cells assessed as reduction of cell mobility at 1 to 25 uM measured at 24 hrs by well scratch method; type: functional, cell-based; conditions: dose 1-25 µM
[27] = Acute toxicity in KM mouse assessed as effect on kidney at 100 mg/kg, ip administered for 7 consecutive days by hematoxyin-eosin staining based analysis; type: organism-based; conditions: in vivo, 168 h, time 7 day
SK-HEP1 [28] = assay: Upregulation of E-cadherin expression in human SK-HEP1 cells at 1 to 25 uM by Western blotting analysis; type: functional, cell-based; conditions: dose 1-25 µM
Homo sapiens [29] = species: Homo sapiens; assay: Effect on PACT-Dicer interaction (unknown origin) assessed as increase in binding of PACT to Dicer at 1 to 25 uM by Western blotting analysis; conditions: dose 1-25 µM
[30] = Acute toxicity in KM mouse assessed as effect on brain at 100 mg/kg, ip administered for 7 consecutive days by hematoxyin-eosin staining based analysis; type: organism-based; conditions: in vivo, 168 h, time 7 day
SK-HEP1 [31] = assay: Upregulation of PTEN protein expression in human SK-HEP1 cells incubated for 24 hrs by Western blotting analysis; type: functional, cell-based; conditions: dose 1-50 µM, DDE = dose-dependent effect
HCCLM3 [32] = assay: Downregulation of miR-18a expression in human HCCLM3 cells at 10 uM by qRT-PCR analysis; type: functional, cell-based
[33] = Toxicity in SCID mouse xenografted with human MHCC97-L cells assessed as effect on heart at 10 to 50 mg/kg, ip administered every 2 days for 4 weeks by hematoxyin-eosin staining based analysis; type: organism-based; conditions: in vivo, 672 h, dose 10-50 mg/kg
SK-HEP1 [34] = assay: Antitumor activity against human SK-HEP1 cells xenografted in SCID mouse assessed as reduction in number of intrahepatic migration lesions at 10 to 25 mg/kg, ip administered every 2 days for 4 weeks by hematoxyin-eosin staining based analysis; type: functional, organism-based; conditions: dose 10-25 mg/kg
SK-HEP1 [35] = assay: Downregulation of SUV39H1 expression in human SK-HEP1 cells at 1 to 25 uM by Western blotting analysis; type: functional, cell-based; conditions: dose 1-25 µM
HeLa [36] = assay: Upregulation of pri-miR-214 in human HeLa cells at 10 uM incubated for 6 hrs by qRT-PCR analysis; type: functional, cell-based
HeLa [37] = assay: Upregulation of pre-miR-21 in human HeLa cells at 10 uM incubated for 6 hrs by qRT-PCR analysis; type: functional, cell-based
MHCC97-L [38] = assay: Upregulation of let-7 expression in human MHCC97-L cells at 10 uM by qRT-PCR analysis; type: functional, cell-based
HCCLM3 [39] = assay: Inhibition of cell migration in human HCLLM3 cells at 1 to 25 uM measured after 24 hrs by crystal violet staining based transwell assay; type: functional; conditions: dose 1-25 µM
[40] = Toxicity in SCID mouse xenografted with human MHCC97-L cells assessed as effect on lung at 10 to 50 mg/kg, ip administered every 2 days for 4 weeks by hematoxyin-eosin staining based analysis; type: organism-based; conditions: in vivo, 672 h, dose 10-50 mg/kg

CCOC(=O)c1nc(-c2ccc(OC)cc2)oc1C
Activity (HepG2 [1]): Active
Activity (SK-HEP1 [2]): Active
Activity (HCCLM3 [3]): Active
Activity (MHCC97-L [4]): Active
Activity [5]: Non-Toxic
Activity (SK-HEP1 [6]): Active
Activity (SK-HEP1 [7]): Active
Activity (HCCLM3 [8]): Active
Activity (SK-HEP1 [9]): Active
IC50 [10]: 12.3 µM
Activity (Homo sapiens [11]): Active
Activity (SK-HEP1 [12]): Active
inhibition (SK-HEP1 [13]): Active
Activity (HeLa [14]): 60%
inhibition (HCCLM3 [15]): Active
Activity (SK-HEP1 [16]): Active
Activity (HeLa [17]): Active
EC50 [18]: 1.38 µM
Activity (HepG2 [19]): Active
inhibition (MHCC97-L [20]): Active
Activity [21]: Non-Toxic
Activity (Mus musculus): Active
RLU (HeLa [22]): 5.68
Activity (MHCC97-L [23]): Active
Activity (HCCLM3 [24]): Active
Activity (HepG2 [25]): Active
inhibition (HCCLM3 [26]): Active
Activity [27]: Non-Toxic
Activity (SK-HEP1 [28]): Active
Activity (Homo sapiens [29]): Active
Activity [30]: Non-Toxic
Activity (SK-HEP1 [31]): Dde
Activity (HCCLM3 [32]): Active
Activity [33]: Non-Toxic
Activity (SK-HEP1 [34]): Active
Activity (SK-HEP1 [35]): Active
Activity (HeLa [36]): Active
Activity (HeLa [37]): Active
Activity (MHCC97-L [38]): Active
inhibition (HCCLM3 [39]): Active
Activity [40]: Non-Toxic
